Experimental data as given in US11578061B2, “Inhibitors of LRRK2 kinase” (Halia Therapeutics, Inc., priority 2021, dated 2023).

Target: recombinant human LRRK2 (catalytic domain only [amino acids 970-2527], GST-tagged) (Homo sapiens (Human), UniProt Q5S007)
Assay: LRRK2 Enzymatic Assay
Assay type: biochemical
Details: LRRKtide substrate, [32P]-ATP
Summary of the method: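 Radiometric P81 filter-binding read-out of [32P]-ATP transfer to LRRKtide (20 μM) by 30 nM GST-LRRK2 970-2527, 2 h at room temperature after 20 min compound preincubation (10 μM–0.5 nM, 1% DMSO). IC50 derived from % remaining activity versus DMSO.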

Sequence of recombinant human LRRK2 (catalytic domain only [amino acids 970-2527], GST-tagged) (Q5S007 970-2527): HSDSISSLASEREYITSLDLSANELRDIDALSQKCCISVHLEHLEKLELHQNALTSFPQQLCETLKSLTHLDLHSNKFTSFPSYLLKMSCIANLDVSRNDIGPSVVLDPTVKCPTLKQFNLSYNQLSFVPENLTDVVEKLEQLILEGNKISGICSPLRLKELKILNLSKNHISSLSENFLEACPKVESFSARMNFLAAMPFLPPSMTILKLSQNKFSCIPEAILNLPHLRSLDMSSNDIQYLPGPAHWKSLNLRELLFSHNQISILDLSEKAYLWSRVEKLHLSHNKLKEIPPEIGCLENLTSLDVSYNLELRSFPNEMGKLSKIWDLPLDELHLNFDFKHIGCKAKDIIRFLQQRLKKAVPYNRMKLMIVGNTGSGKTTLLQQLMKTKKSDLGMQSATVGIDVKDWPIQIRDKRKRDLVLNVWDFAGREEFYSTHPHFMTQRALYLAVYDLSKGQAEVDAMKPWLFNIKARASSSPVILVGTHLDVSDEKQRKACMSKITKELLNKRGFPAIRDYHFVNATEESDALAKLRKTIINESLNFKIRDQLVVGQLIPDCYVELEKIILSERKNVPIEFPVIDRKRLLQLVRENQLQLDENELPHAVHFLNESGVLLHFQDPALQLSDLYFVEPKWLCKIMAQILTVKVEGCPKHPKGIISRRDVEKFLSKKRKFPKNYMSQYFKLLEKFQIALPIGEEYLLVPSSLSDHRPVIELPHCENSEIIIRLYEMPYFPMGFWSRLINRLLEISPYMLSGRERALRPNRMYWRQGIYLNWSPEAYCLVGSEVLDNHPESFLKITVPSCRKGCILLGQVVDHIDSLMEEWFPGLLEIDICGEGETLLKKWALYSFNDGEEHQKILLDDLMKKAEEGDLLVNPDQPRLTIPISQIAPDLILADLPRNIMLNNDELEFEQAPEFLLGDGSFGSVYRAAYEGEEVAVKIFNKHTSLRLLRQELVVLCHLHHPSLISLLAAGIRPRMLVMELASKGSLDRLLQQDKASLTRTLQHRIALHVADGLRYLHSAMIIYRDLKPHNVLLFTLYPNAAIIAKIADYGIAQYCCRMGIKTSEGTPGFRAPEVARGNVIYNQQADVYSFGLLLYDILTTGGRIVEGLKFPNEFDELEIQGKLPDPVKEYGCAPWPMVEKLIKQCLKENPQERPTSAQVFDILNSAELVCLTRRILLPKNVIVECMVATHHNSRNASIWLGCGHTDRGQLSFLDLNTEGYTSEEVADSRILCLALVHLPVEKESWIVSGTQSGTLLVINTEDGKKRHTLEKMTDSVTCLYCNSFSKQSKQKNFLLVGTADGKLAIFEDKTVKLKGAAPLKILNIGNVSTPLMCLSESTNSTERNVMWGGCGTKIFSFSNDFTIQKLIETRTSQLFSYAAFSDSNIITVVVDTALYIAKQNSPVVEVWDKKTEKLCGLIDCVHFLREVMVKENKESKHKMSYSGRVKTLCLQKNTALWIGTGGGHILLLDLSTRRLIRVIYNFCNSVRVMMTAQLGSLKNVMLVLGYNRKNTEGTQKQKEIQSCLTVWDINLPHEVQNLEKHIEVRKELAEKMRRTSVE

Row | SMILES | IC50
1 | CN[C@H]1CC[C@H](COc2nc(Nc3ccc(N4CCOCC4)cc3)ncc2C2CC2)CC1 [Example 45, 5-cyclopropyl-4-(((1R,4R)-4-(methylamino)cyclo-hexyl)methoxy)-N-(4-morpholinophenyl) pyrimidin-2-amine] | 0.05 to 0.2 µM
2 | CNC1CCCC(COc2ccnc(Nc3ccc(N4CCOCC4)cc3)n2)C1 (centres unmarked) [Example 47, 4-((3-(methylamino)cyclo-hexyl)methoxy)-N-(4-morpholinophenyl) pyrimidin-2-amine] | 0.2 to 0.4 µM
3 | CNC[C@H]1CC[C@H](COc2ccnc(Nc3ccc(N4CCOCC4)cc3)n2)CC1 [Example 48, 4-(((1R,4R)-4-((methylamino)methyl)cyclohexyl)methoxy)-N-(4-morpholinophenyl)py-rimidin-2-amine] | 0.05 to 0.2 µM
4 | CNC1(COc2nc(Nc3ccc(N4CCOCC4)cc3)ncc2Cl)CC1 [Example 54, 5-chloro-4-((1-(methylamino)cyclo-propyl)methoxy)-N-(4-morpholinophenyl)py-rimidin-2-amine] | 0.2 to 0.4 µM
5 | Cc1nn(C(C)(C)C#N)cc1Nc1ncc(Cl)c(OCC2CCN(C)CC2)n1 [Example 57, 2-(4-((5-chloro-4-((1-methylpiperidin-4-yl)methoxy)pyrimidin-2-yl)amino)-3-methyl-1H-pyrazol-1-yl)-2-methylpropanenitrile] | 0.05 to 0.2 µM
6 | Cc1nn(C2CC(C#N)C2)cc1Nc1ncc(Cl)c(OCC2CCN(C)CC2)n1 (centres unmarked) [Example 59, 3-(4-((5-chloro-4-((1-methylpiperidin-4-yl)methoxy)pyrimidin-2-yl)amino)-3-methyl-1H-pyrazol-1-yl)cyclobutane-1-carbonitrile] | 0.2 to 0.4 µM
7 | Cc1nn(C(C)(C)C#N)cc1Nc1nccc(OCC2(F)CCN(C)CC2)n1 [Example 60, 2-(4-((4-((4-fluoro-1-methylpiperidin-4-yl)methoxy)pyrimidin-2-yl)amino)-3-methyl-1H-pyrazol-1-yl)-2-methylpropanenitrile] | > 0.4 µM
8 | Cc1nn(C2CC(C#N)C2)cc1Nc1ncc(Cl)c(OCC2(F)CCN(C)CC2)n1 (centres unmarked) [Example 62, 3-(4-((5-chloro-4-((4-fluoro-1-methylpiperidin-4-yl)methoxy)pyrimidin-2-yl)amino)-3-methyl-1H-pyrazol-1-yl)cyclobutane-1-carbonitrile] | 0.2 to 0.4 µM
9 | Cc1nn(C2CC(C#N)C2)cc1Nc1ncc(Cl)c(OCC2CCN(C)CC2F)n1 (centres unmarked) [Example 63, 3-(4-((5-chloro-4-((3-fluoro-1-methylpiperidin-4-yl)methoxy)pyrimidin-2-yl)amino)-3-methyl-1H-pyrazol-1-yl)cyclobutane-1-carbonitrile] | > 0.4 µM
10 | CN1CCC(F)(COc2nc(Nc3ccc(N4CCOCC4)cc3)ncc2F)CC1 [Example 64, 5-fluoro-4-((4-fluoro-1-methylpiperidin-4-yl)methoxy)-N-(4-morpholinophenyl)py-rimidin-2-amine] | > 0.4 µM
11 | C[C@@H]1CN(c2ccc(Nc3ncc(F)c(OCC4(F)CCN(C)CC4)n3)cc2)C[C@H](C)O1 [Example 65, N-(4-((2R,6S)-2,6-dimethylmorpholino)phenyl)-5-fluoro-4-((4-fluoro-1-methylpiperidin-4-yl)methoxy)pyrimidin-2-amine] | 0.05 to 0.2 µM
12 | Cc1nn(C(C)(C)C#N)cc1Nc1ncc(F)c(OCC2(F)CCN(C)CC2)n1 [Example 66, 2-(4-((5-fluoro-4-((4-fluoro-1-methylpiperidin-4-yl)methoxy)pyrimidin-2-yl)amino)-3-methyl-1H-pyrazol-1-yl)-2-methylpropanenitrile] | > 0.4 µM
13 | Cc1nn(C(C)(C)C#N)cc1Nc1ncc(F)c(OCC2CCN(C)CC2)n1 [Example 67, 2-(4-((5-fluoro-4-((1-methylpiperidin-4-yl)methoxy)pyrimidin-2-yl)amino)-3-methyl-1H-pyrazol-1-yl)-2-methylpropanenitrile] | > 0.4 µM
14 | Cc1nn(C(C)(C)C#N)cc1Nc1ncc(Cl)c(OCC2CN(C)C2)n1 [Example 68, 2-(4-((5-chloro-4-((1-methylazetidin-3-yl)methoxy)pyrimidin-2-yl)amino)-3-methyl-1H-pyrazol-1-yl)-2-methylpropanenitrile] | > 0.4 µM
15 | Cc1nn(C2CC(C#N)C2)cc1Nc1ncc(Cl)c(OCC2(F)CN(C)C2)n1 (centres unmarked) [Example 69, 3-(4-((5-chloro-4-((3-fluoro-1-methylazetidin-3-yl)methoxy)pyrimidin-2-yl)amino)-3-methyl-1H-pyrazol-1-yl)cyclobutane-1-carbonitrile] | > 0.4 µM
16 | CC1(C(=O)N[C@H]2CC[C@H](COc3ccnc(Nc4ccc(N5CCOCC5)cc4)n3)CC2)CC1 [Example 71, 1-methyl-N-((1R,4R)-4-(((2-((4-morpholinophenyl)amino)pyrimidin-4-yl)oxy)methyl)cyclo-hexyl)cyclopropane-1-carboxamide] | > 0.4 µM
17 | CC(=O)N[C@H]1CC[C@H](COc2ccnc(Nc3ccc(N4CCOCC4)cc3)n2)CC1 [Example 72, N-((1R,4R)-4-(((2-((4-morpholinophenyl)amino)pyrimidin-4-yl)oxy)methyl)cyclo-hexyl)acetamide] | 0.05 to 0.2 µM
18 | CC(=O)N[C@H]1CC[C@H](COc2ccnc(Nc3ccc(N4C[C@@H](C)O[C@@H](C)C4)cc3)n2)CC1 [Example 73, N-((1R,4R)-4-(((2-((4-((2R,6S)-2,6-dimethylmorpholino)phenyl)amino)pyrimidin-4-yl)oxy)methyl)cyclo-hexyl)acetamide] | 0.05 to 0.2 µM

Continued, values first:

Row | IC50 | SMILES
19 | < 0.05 µM | CN[C@H]1CC[C@H](COc2nc(Nc3cn(C4CC(C#N)C4)nc3C)ncc2Cl)CC1 (stereo partly drawn) [Example 40, 3-(4-((5-chloro-4-(((1R,4R)-4-(methylamino)cyclo-hexyl)methoxy)py-rimidin-2-yl)amino)-3-methyl-1H-pyrazol-1-yl)cyclobutane-1-carbonitrile]
20 | < 0.05 µM | CN[C@H]1CC[C@H](COc2nc(Nc3ccc(N4CCOCC4)cc3)ncc2F)CC1 [Example 42, 5-fluoro-4-(((1R,4R)-4-(methylamino)cyclo-hexyl)methoxy)-N-(4-morpholinophenyl) pyrimidin-2-amine]
21 | < 0.05 µM | CN[C@H]1CC[C@H](COc2nc(Nc3cn(C(C)(C)C#N)nc3C)ncc2F)CC1 [Example 43, 2-(4-((5-fluoro-4-(((1R,4R)-4-(methylamino)cyclo-hexyl)methoxy)py-rimidin-2-yl)amino)-3-methyl-1H-pyrazol-1-yl)-2-methylpropanenitrile]
22 | < 0.05 µM | CN[C@H]1CC[C@H](COc2nc(Nc3cn(C(C)(C)C#N)nc3C)ncc2C)CC1 [Example 44, 2-methyl-2-(3-methyl-4-((5-methyl-4-(((1R,4R)-4-(methylamino)cyclo-hexyl)methoxy)py-rimidin-2-yl)amino)-1H-pyrazol-1-yl)propanenitrile]
23 | < 0.05 µM | CNC[C@H]1CC[C@H](COc2nc(Nc3ccc(N4CCOCC4)cc3)ncc2Cl)CC1 [Example 49, 5-chloro-4-(((1R,4R)-4-((methylamino)methyl)cyclohexyl)methoxy)-N-(4-morpholinophenyl)py-rimidin-2-amine]
24 | < 0.05 µM | CNC[C@H]1CC[C@H](COc2nc(Nc3cnn(C4CC(C#N)C4)c3C)ncc2Cl)CC1 (stereo partly drawn) [Example 50, 3-(4-((5-chloro-4-(((1R,4R)-4-((methylamino)methyl)cyclohexyl)methoxy)pyrimidin-2-yl)amino)-5-methyl-1H-pyrazol-1-yl)cyclobutane-1-carbonitrile]
25 | < 0.05 µM | CNC[C@H]1CC[C@H](COc2nc(Nc3cn(C4CC(C#N)C4)nc3C)ncc2Cl)CC1 (stereo partly drawn) [Example 51, 3-(4-((5-chloro-4-(((1R,4R)-4-((methylamino)methyl)cyclohexyl)methoxy)pyrimidin-2-yl)amino)-3-methyl-1H-pyrazol-1-yl)cyclobutane-1-carbonitrile]
26 | < 0.05 µM | CN[C@H]1CC[C@@H](COc2nc(Nc3cnn(C4CC(C#N)C4)c3C)ncc2Cl)C1 (stereo partly drawn) [Example 52, 3-(4-((5-chloro-4-(((1R,3S)-3-(methylamino)cyclo-pentyl)methoxy)py-rimidin-2-yl)amino)-5-methyl-1H-pyrazol-1-yl)cyclobutane-1-carbonitrile]
27 | < 0.05 µM | CN[C@H]1CC[C@@H](COc2nc(Nc3cn(C4CC(C#N)C4)nc3C)ncc2Cl)C1 (stereo partly drawn) [Example 53, 3-(4-((5-chloro-4-(((1R,3S)-3-(methylamino)cyclo-pentyl)methoxy)py-rimidin-2-yl)amino)-3-methyl-1H-pyrazol-1-yl)cyclobutane-1-carbonitrile]
28 | < 0.05 µM | COc1cnc(Nc2ccc(N3CCOCC3)cc2)nc1OC[C@H]1CC[C@H](N(C)C)CC1 [Example 55, 4-(((1R,4R)-4-(dimethylamino)cyclo-hexyl)methoxy)-5-methoxy-N-(4-morpholinophenyl)py-rimidin-2-amine]
29 | < 0.05 µM | CN1CCC(COc2nc(Nc3ccc(N4CCOCC4)cc3)ncc2Cl)CC1 [Example 56, 5-chloro-4-((1-methylpiperidin-4-yl)methoxy)-N-(4-morpholinophenyl)py-rimidin-2-amine]
30 | < 0.05 µM | Cc1c(Nc2ncc(Cl)c(OCC3CCN(C)CC3)n2)cnn1C1CC(C#N)C1 (centres unmarked) [Example 58, 3-(4-((5-chloro-4-((1-methylpiperidin-4-yl)methoxy)pyrimidin-2-yl)amino)-5-methyl-1H-pyrazol-1-yl)cyclobutane-1-carbonitrile]
31 | < 0.05 µM | Cc1nn(C(C)(C)C#N)cc1Nc1ncc(Cl)c(OCC2(F)CCN(C)CC2)n1 [Example 61, 2-(4-((5-chloro-4-((4-fluoro-1-methylpiperidin-4-yl)methoxy)pyrimidin-2-yl)amino)-3-methyl-1H-pyrazol-1-yl)-2-methylpropanenitrile]
32 | < 0.05 µM | Cc1nn(C(C)(C)C#N)cc1Nc1ncc(Cl)c(OCC2CC3(C2)CN(C)C3)n1 [Example 70, 2-(4-((5-chloro-4-((2-methyl-2-azaspiro[3.3]heptan-6-yl)methoxy)pyrimidin-2-yl)amino)-3-methyl-1H-pyrazol-1-yl)-2-methylpropanenitrile]
